From EP0995757A2, “Bivalent inhibitors of the proteasome” (Max-Planck-Gesellschaft zur Förderung der Wissenschaften …, priority 1998, dated 2000)
Where a SMILES comes first, the peptide text is derived from it.

Legend:
[1] = molecular target: T1, yeast proteasome β2/β2' (Saccharomyces cerevisiae, UniProt P25043); assay: Proteasome assay, trypsin-like activity (fluorogenic substrate Bz-Phe-Val-Arg-AMC); type: biochemical, Saccharomyces cerivisiae; design: from tissue; host or cells: Saccharomyces cerevisiae (natural complex from yeast; I conclude this from 'proteasome from'); details: for IC50: trypsin-like activity, Bz-Phe-Val-Arg-AMC 8 µM, inhibitor incubated 1 h at 37°C, Tris-buffer pH 7.5; for increase in binding affinity: compared to the monovalent inhibitors 1, 2, 3 and 5, β2/β2'
Experimental: (§1) A solution of proteasome from Saccharomyces cerivisiae in Tris-buffer (pH 7.5; 450 µl; 6.67 nM for PGPH, 5.56 nM for trypsin-like and 1.11 nM for chymotrypsin-like activity) was incubated with the inhibitors at varying concentrations ([…]) for 1 h at 37°C. The fluorogenic substrates for PGPH (Z-Leu-Leu-Glu-βNA, 40 µM), trypsin-like (Bz-Phe-Val-Arg-AMC, 8 µM) and chymotrypsin-like assays (Suc-Leu-Leu-Val-Tyr-AMC, 8 µM) were dissolved in the same Tris-buffer with a minimum amount of DMSO and added to the enzyme solution at 37 °C to reach a final volume of 500 µl. Fluorescence excitation/emission wavelengths were 360 nm/460 nm for AMC and 335 nm/410 nm for βNA. The rates of hydrolysis were monitored by the fluorescence increase and the initial linear portions of curves (100-300 sec) were used to calculate the IC50 values.

[2] = molecular target: T2, yeast proteasome β5/β5' (Saccharomyces cerevisiae, UniProt P30656); assay: Proteasome assay, chymotrypsin-like activity (fluorogenic substrate Suc-Leu-Leu-Val-Tyr-AMC); type: biochemical, Saccharomyces cerivisiae; design: from tissue; host or cells: Saccharomyces cerevisiae (natural complex from yeast; I conclude this from 'proteasome from'); details: for IC50: chymotrypsin-like activity, Suc-Leu-Leu-Val-Tyr-AMC 8 µM, inhibitor incubated 1 h at 37°C, Tris-buffer pH 7.5; for increase in binding affinity: compared to the monovalent inhibitors 1, 2, 3 and 5, β5/β5'
Experimental: as §1

[3] = molecular target: T3, yeast proteasome β1/β1' (Saccharomyces cerevisiae, UniProt P38624); assay: Proteasome assay, PGPH activity (fluorogenic substrate Z-Leu-Leu-Glu-βNA); type: biochemical, Saccharomyces cerivisiae; design: Three of the seven different β-type subunits are processed at the N-terminal nucleophile, the threonine-1 residue; from tissue; host or cells: Saccharomyces cerevisiae (natural complex from yeast; I conclude this from 'proteasome from'); details: Z-Leu-Leu-Glu-βNA 40 µM, inhibitor incubated 1 h at 37°C, Tris-buffer pH 7.5
Experimental: as §1

[4] = molecular target: T4, yeast 20S proteasome (Saccharomyces cerevisiae, UniProt P25043+P30656+P38624); assay: X-ray structure analysis of proteasome/inhibitor complexes (crystal soaking); design: species or system S. cerivisiae; details: crystals soaked with 5 mM inhibitor for 12h, no competing substrate
T4 construct: Three of the seven different β-type subunits are processed at the N-terminal nucleophile, the threonine-1 residue; from tissue; host or cells: Saccharomyces cerevisiae (natural 20S complex)
Experimental: Crystals of […] proteasomes from S. cerivisiae were grown in hanging drops at 24 °C as described previously (Groll et al., Nature 386, 463-471, 1997). The protein concentration used for crystallization was 40 mg/ml in 10 mM Tris-HCl (pH 7.5) and 1 mM EDTA. The drops contained 4 µl protein and 2 µl reservoir solution with 30 mM magnesium acetate, 100 mM morpholino-ethane-sulphonic acid (pH 6.5) and 11 % MPD. The inhibitors were soaked with a final concentration of 5 mM for 12h. Data were collected using synchrotron radiation with λ = 1.1 Å on the BW6-beamline at the DESY-Centre/Hamburg/Germany (Table 1). Crystals were soaked in a cryoprotecting buffer (30% MPD, 28 mM magnesium acetate, 100 mM morpholino-ethane-sulfonic acid (pH 6.9) and frozen in a stream of cold nitrogen gas at 90 K (Oxford Cryo Systems). X-ray intensities were evaluated by using the MOSFILM program package (version 5.3) and data reduction was performed with CCP4. The anisotropy of diffraction was corrected by an overall anisotropic temperature factor by comparing observed and calculated structure amplitudes using X-PLOR (Brunger, A. (1992) X-PLOR: A System for X-Ray Crystallography and NMR, version 3.1; Yale University Press, New Haven, CT). Electron density was averaged 10 times over the 2-fold non crystallographic symmetry axis using MAIN (Turk, D., Ph. D. Thesis, Technical University, Munich, 1992). […]

[5] = molecular target: T1, yeast proteasome β2/β2'; assay: Proteasome assay, trypsin-like activity (fluorogenic substrate Bz-Phe-Val-Arg-AMC); type: biochemical; design: endogenous in cells; host or cells: Saccharomyces cerevisiae; details: Bz-Phe-Val-Arg-AMC 8 µM, inhibitor incubated 1 h at 37°C, Tris-buffer pH 7.5
Experimental: as §1

[6] = molecular target: T2, yeast proteasome β5/β5'; assay: Proteasome assay, chymotrypsin-like activity (fluorogenic substrate Suc-Leu-Leu-Val-Tyr-AMC); type: biochemical; design: endogenous in cells; host or cells: Saccharomyces cerevisiae; details: Suc-Leu-Leu-Val-Tyr-AMC 8 µM, inhibitor incubated 1 h at 37°C, Tris-buffer pH 7.5
Experimental: as §1

[7] = molecular target: T3, yeast proteasome β1/β1'; assay: Proteasome assay, PGPH activity (fluorogenic substrate Z-Leu-Leu-Glu-βNA); type: biochemical; design: Three of the seven different β-type subunits are processed at the N-terminal nucleophile, the threonine-1 residue; endogenous in cells; host or cells: Saccharomyces cerevisiae; details: Z-Leu-Leu-Glu-βNA 40 µM, inhibitor incubated 1 h at 37°C, Tris-buffer pH 7.5
Experimental: as §1

**Q.** “HOOC-(CH2)2-CO-NH-(PEG)19-25-NH-CO-(CH2)2-CO-Arg-Val-Arg-H [compound 5]” was tested. Which IC50 [1] did it give?
**A.** Its IC50 is 8.2 µM.

**Q.** What about the IC50 [2] of the same compound?
**A.** Its IC50 is greater than 100 µM.

**Q.** And the IC50 [3]?
**A.** Its IC50 is greater than 100 µM.

**Q.** What does the source list for “(PEG)19-25-[NH- CO- (CH2)2- CO-Leu-Leu-Nle-H]2 [compound 4]”?
**A.** IC50 [1]: > 100 µM; IC50 [2]: 0.017 µM; increase in binding affinity [2]: about two orders of magnitude; increased activity ([2]; homobivalent versus related monovalent inhibitors, chymotryptic activity β5/β5'): 100 fold; active sites occupied by the inhibitory head group in the X-ray structure [4]: occupies all six active sites; IC50 [3]: > 100 µM

**Q.** `CC(=O)N[C@@H](CCCNC(=N)N)C(=O)N[C@H](C(=O)N[C@H](C=O)CCCNC(=N)N)C(C)C` [compound 2, Ac-Arg-Val-Arg-H] (Ac-Arg-Val-Arg-aldehyde) was tested. Which IC50 [5] did it give?
**A.** Its IC50 is 6.4 µM.

**Q.** What about the IC50 [6] of the same compound?
**A.** The IC50 was greater than 100 µM.

**Q.** What about the IC50 [7] of the same compound?
**A.** Its IC50 is greater than 100 µM.

**Q.** With “HOOC-(CH2)2-CO-NH-(PEG)19-25-NH-(CH2)2-CO-Leu-Leu-Nle-H [compound 3]” as the compound, how does the IC50 [1] read?
**A.** The IC50 was greater than 100 µM.

**Q.** What about the IC50 [2] of the same compound?
**A.** Its IC50 is 1.8 µM.

**Q.** What about the IC50 [3] of the same compound?
**A.** Its IC50 is greater than 100 µM.

**Q.** How did the “increase in binding affinity” value [1] turn out when “(PEG)19-25-[NH-CO-(CH2)2-CO-Arg- Val-Arg-H]2 [compound 6]” was run?
**A.** The value was “about two orders of magnitude”.

**Q.** And the increased activity ([1]; homobivalent versus related monovalent inhibitors, tryptic activity β2/β2')?
**A.** Its increased activity is 100 fold.

**Q.** What about the IC50 [1] of the same compound?
**A.** The IC50 was 0.071 µM.

**Q.** What about the IC50 [2] of the same compound?
**A.** The IC50 was greater than 100 µM.

**Q.** What about the “active sites occupied by the inhibitory head group in the X-ray structure” value [4] of the same compound?
**A.** The value was “only in the two β2 and β2' active sites”.

**Q.** And the IC50 [3]?
**A.** Its IC50 is greater than 100 µM.

**Q.** “(PEG)19-25-[NH-CO-(CH2)2-CO-Arg-Val-Arg-H][NH-CO-(CH2)2-CO-Leu-Leu-Nle-H] [compound 7]” was tested. Which “increase in binding affinity” value [1] did it give?
**A.** The value was “about two orders of magnitude”.

**Q.** What about the IC50 [1] of the same compound?
**A.** Its IC50 is 0.097 µM.

**Q.** What about the IC50 [2] of the same compound?
**A.** The IC50 was 0.031 µM.

**Q.** And the “increase in binding affinity” value [2]?
**A.** Its value is “about two orders of magnitude”.

**Q.** And the IC50 [3]?
**A.** Its IC50 is greater than 100 µM.
